One compound from BindingDB's records for doi:10.1007/bf00178951 (Sandoz Pharma, 1994) can be followed below.

For this assay, the target named is G_PROTEIN_RECEP_F1_2 domain-containing protein (Sus scrofa, UniProt I3LCE8).

The structures appear in SMILES notation.

Sequence of G_PROTEIN_RECEP_F1_2 domain-containing protein (I3LCE8 whole entry): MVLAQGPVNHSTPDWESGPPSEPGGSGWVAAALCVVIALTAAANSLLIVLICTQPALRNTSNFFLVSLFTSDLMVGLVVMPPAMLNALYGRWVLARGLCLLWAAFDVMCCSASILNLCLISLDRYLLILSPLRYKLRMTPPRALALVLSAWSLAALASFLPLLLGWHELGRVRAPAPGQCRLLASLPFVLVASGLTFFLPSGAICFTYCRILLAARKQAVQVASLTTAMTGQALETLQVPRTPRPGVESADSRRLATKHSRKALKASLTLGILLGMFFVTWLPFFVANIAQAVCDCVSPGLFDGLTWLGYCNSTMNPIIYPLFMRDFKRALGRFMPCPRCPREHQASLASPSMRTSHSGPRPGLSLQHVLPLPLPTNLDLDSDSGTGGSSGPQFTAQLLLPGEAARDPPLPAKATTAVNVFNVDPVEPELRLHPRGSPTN

Compound `O=C(c1ccc(F)cc1)C1CCN(CCn2c(=O)[nH]c3ccccc3c2=O)CC1` [3-(2-{4-[(4-fluorophenyl)carbonyl]piperidin-1-yl}ethyl)-1,2,3,4-tetrahydroquinazoline-2,4-dione] yielded a Ki of over 10 µM.

In general, Ki refers to a measure of affinity in units of concentration, obtained from inhibition or displacement. Higher therefore signals lower affinity.
